Reference: patent US5420128A, “Pyrimidine derivatives, method of manufacturing the same, and androgen inhibitor” (Otsuka Pharmaceutical Co., Ltd., priority 1990, dated 1995)

What was measured:
[1] = molecular target: T1, rat prostate androgen receptor (Rattus norvegicus, UniProt P15207); assay: inhibitory activity on binding of ^3 H-5α-DHT on rat prostate androgen receptor; conditions: ^3 H-5α-DHT 1 nM, rat ventral prostate cytosol, about 20 hours at 0° C.; read-out: Inhibitory activity on 5α-DHT specific binding [IC50 (M)]
T1 construct: the supernatant was obtained as cytoplasm fraction; from tissue; host or cells: cytosol (105000×g supernatant) of rat ventral prostate, 24 hours after castration
T1 sequence (P15207 1-902): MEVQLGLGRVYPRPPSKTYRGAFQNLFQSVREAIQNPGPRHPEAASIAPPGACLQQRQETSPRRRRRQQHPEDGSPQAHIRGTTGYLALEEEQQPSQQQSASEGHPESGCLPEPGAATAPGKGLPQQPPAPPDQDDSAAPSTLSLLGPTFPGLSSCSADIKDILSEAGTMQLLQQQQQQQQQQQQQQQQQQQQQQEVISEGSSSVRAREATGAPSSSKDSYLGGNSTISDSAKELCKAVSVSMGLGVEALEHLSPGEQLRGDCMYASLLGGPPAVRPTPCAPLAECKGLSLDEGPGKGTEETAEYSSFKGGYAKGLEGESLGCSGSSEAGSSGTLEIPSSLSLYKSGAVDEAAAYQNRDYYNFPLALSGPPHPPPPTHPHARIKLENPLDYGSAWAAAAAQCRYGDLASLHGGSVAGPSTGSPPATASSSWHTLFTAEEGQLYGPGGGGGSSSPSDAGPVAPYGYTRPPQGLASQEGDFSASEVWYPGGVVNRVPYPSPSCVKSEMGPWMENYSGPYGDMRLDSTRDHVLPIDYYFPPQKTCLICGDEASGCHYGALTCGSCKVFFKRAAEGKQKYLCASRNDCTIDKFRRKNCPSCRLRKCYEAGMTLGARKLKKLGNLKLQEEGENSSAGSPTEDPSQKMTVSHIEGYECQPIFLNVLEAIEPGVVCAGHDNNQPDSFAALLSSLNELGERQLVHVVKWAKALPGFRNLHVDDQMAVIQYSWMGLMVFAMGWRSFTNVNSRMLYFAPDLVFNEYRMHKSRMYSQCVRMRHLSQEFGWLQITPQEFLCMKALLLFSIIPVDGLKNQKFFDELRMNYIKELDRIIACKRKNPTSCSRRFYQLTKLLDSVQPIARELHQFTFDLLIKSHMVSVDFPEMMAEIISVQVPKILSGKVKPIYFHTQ
Description: The compounds obtained in Examples were evaluated in the following pharmacological studies A and B. The pharmacological study A was conducted in conformity with J.B.C. 256 (15) 7998-8005, 1981.
A. Measurement of inhibitory activity on binding of ^3 H-5α-[…] (^3 H-5α,-DHT) on rat prostate androgen receptor
(1) Preparation of cytosol from rat prostate
The rat was sacrificed 24 hours after castration, and the ventral lobe of prostate was removed, and was gently homogenized, on ice water bath, by using a Potter homogenizer in three-fold amount of 0.25M sucrose-TME buffer solution (50 mM tris-HCl (pH 7.4), 0.5 mM mercaptoethanol, and 0.1 mM EDTA-2 Na). The homogenate was filtrated through double gauze, and ultracentrifuged at 105000×g for 60 minutes, and the supernatant was used as androgen receptor.
(2) Measurement of ^3 H-5α-DHT specific binding on prostate cytoplasmic androgen receptor
To the cytosol obtained in (1), ^3 H-5α-DHT (47.8 Ci/mmol) was added, so that a final concentration is adjusted to 1 nM, and 0.25 M sucrose-TME buffer was added to adjust the final volume to 0.5 ml, and the reaction mixture was incubated for about 20 hours at 0° C. An ammonium sulfate solution dissolved in 0.25 M sucrose-TME buffer was mixed to be 35% saturation, and after standing for 90 minutes at 0° C., the mixture was centrifuged at 10000×g for 10 minutes at 4° C., and the precipitate was obtained.
This precipitate was suspended again in 0.8 ml of the above buffer solution, and furthermore in order to remove the free type ^3 H-5α-DHT, 0.2 ml of dextran-carbon powder suspension (4% activated carbon, 0.1% dextran T-70, and 0.1% gelatin dissolved in the above buffer solution) was added and mixed, and the mixture was let stand for 10 minutes at 0° C. At 4° C., in succession, the mixture was centrifuged at 3000×g for 10 minutes, and 0.5 ml of the supernatant was transferred into a vial, and 10 ml of aquasol-2 was added, and radioactivity was measured, and the total binding amount of ^3 H-5α-DHT on the prostate cytoplasma androgen receptor was determined. The nonspecific binding amount was similarly determined by adding a non-radioactive ligand (5α-DHT) to the reaction solution to a final concentration of 1 μM. The difference between the total binding amount and nonspecific binding amount was determined as the specific binding amount on the androgen receptor.
(3) Inhibitory activity of sample compounds on ^3 H-5α-DHT specific binding
The compounds obtained in Examples were incubated with ^3 H-5α-DHT at several concentrations same as in (2), and the specific binding amount of ^3 H-5α-DHT on the androgen receptor was determined. Comparing the obtained value with the value of (2), the IC50 value of the test compounds on ^3 H-5α-DHT specific binding was determined. The following compounds were used as the positive controls.

[2] = molecular target: T1, rat prostate androgen receptor; assay: inhibitory activity on binding of ^3 H-mibolerone on rat prostate androgen receptor; conditions: ^3 H-mibolerone 1 nM, triamcinolone acetonide 5 μM, rat ventral prostate cytosol, 20 hours at 0° C.; read-out: Inhibitory activity on mibolerone specific binding [IC50 (M)]
Description: B. Measurement of inhibitory activity on binding of ^3 H-mibolerone on rat prostate androgen receptor
The rat was sacrificed 24 hours after castration, and the ventral lobe of prostate was removed, and was gently homogenized, in ice-cooling water bath, at first by using Polytron and then using Potter type homogenizer, in three-fold amount of buffer solution A (1.5 mM EDTA, 2 mM dithiothreitol, 10 mM molybdate sodium, 10 % by volume of glycerol, 10 mM NaF, 25 mM phosphate sodium, pH 7.2). The obtained homogenate was filtrated through double gauze, and centrifuged at 105000×g for 60 minutes at 4° C., and the supernatant was obtained as cytoplasm fraction.
(2) Measurement of specific binding of ^3 H-mibolerone on prostate cytoplasm androgen receptor
To the cytoplasm fraction obtained in (1), ^3 H-mibolerone (87.0 Ci/mmol) was added, so that a final concentration is adjusted to 1 nM, and at the same time, in order to inhibit binding of ^3 H-mibolerone to progestin receptor, triamsinolone acetonide was added to a final concentration of 5 μM, and the final volume was adjusted to 0.4 ml with buffer solution A, and the reaction mixture was incubated for 20 hours at 0° C. After incubation, 0.5 ml of 60% hydroxylapatite slurry (washed and equilibrate with a buffer solution B: 10 mM NaH2 P04, 20 mM tris-hydrochloric acid, pH 7.2) was added, and incubated for 10 minutes at 0° C., the solution was transferred onto a glass fiber filter, and washed five times with 5 ml portions of buffer solution B containing 0.1% (weight/volume) of Triton X-100, to remove free ^3 H-mibolerone. This glass fiber was transferred into vial, and 10 ml of aquasol-2 was added, and the radioactivity was measured, and the total binding amount of ^3 H-mibolerone on prostate cytoplasm androgen receptor was determined.
The nonspecific binding amount was determined similarly by adding an unlabeled 5α-DHT in the reaction solution to a final concentration of 1 μM. The difference between the total binding amount and nonspecific binding amount was determined as the specific binding amount on the androgen receptor.
(3) Inhibitory activity of sample compounds on ^3 H-mibolerone specific binding
The compounds obtained in the experiments were added simultaneously with ^3 H-mibolerone at different concentrations to incubate same as in (2), and the specific binding amount of 3H-mibolerone on androgen receptor was determined. Comparing this value with the value obtained in (2), the IC50 value of inhibitory activity of the compounds on ^3 H-mibolerone specific binding was determined.

SMILES	IC50 [1]	IC50 [2]
Oc1ncnc2c(-c3ccc(Sc4ccccc4)cc3)cnn12 [Example 77, 4-Hydroxy-8-(4-phenylthiophenyl)pyrazolo[1,5-a]-1,3,5-triazine]	9.6e-07 M	4.6e-07 M
CCc1ccc(NS(=O)(=O)c2ccc(-c3cnn4c(O)ncnc34)cc2)cc1 [Example 89, 8-[4-(4-Ethylphenylaminosulfonyl)phenyl]-4-hydroxypyrazlo[1,5-a]-1,3,5-triazine]	< 5e-06 M	
CCc1cccc(NS(=O)(=O)c2ccc(-c3cnn4c(O)ncnc34)cc2)c1 [Example 90, 8-[4-(3-ethylphenylaminosulfonyl)phenyl]-4-hydroxypyrazolo[1,5-a]-1,3,5-triazine]	< 5e-06 M	
CCc1ccccc1NS(=O)(=O)c1ccc(-c2cnn3c(O)ncnc23)cc1 [Example 91, 8-[4-(2-ethylphenylaminosulfonyl)phenyl]-4-hydroxypoyrazolo[1,5-a]-1,3,5-triazine]	< 5e-06 M	
CC(C)c1ccc(NS(=O)(=O)c2ccc(-c3cnn4c(O)ncnc34)cc2)cc1 [Example 92, 4-Hydroxy-8-[4-(4-isopropylphenylaminosulfonyl)phenyl]pyrazolo[1,5-a]-1,3,5-triazine]	< 5e-06 M	
O=S(=O)(Nc1ccc(Cl)cc1)c1ccc(-c2cnn3c(O)ncnc23)cc1 [Example 95, 8-[4-(4-chlorophenylaminosulfonyl)phenyl]-4-hydroxypyrazolo[1,5-a]-l,3,5-triazine]	1.2e-06 M	
O=S(=O)(Nc1cccnc1)c1ccc(-c2cnn3c(O)ncnc23)cc1 [Example 97, 4-Hydroxy-8-[4-(3-pyridylaminosulfonyl)phenyl]pyrazolo[1,5-a]-1,3,5-triazine]	5e-06 M	
Oc1ncnc2c(-c3ccc(Sc4ccccc4)c(Cl)c3)cnn12 [Example 102, 8-(3-chloro-4-phenylthiophenyl)-4-hydroxypyrazolo[1,5-a]-1,3,5-triazine]	2.2e-06 M	

Further compounds by falling IC50 [1], results first:

IC50 [1]	IC50 [2]	SMILES
8.5e-07 M	9e-08 M	Oc1ccnc2c(-c3ccc(Sc4ccccc4)cc3)cnn12 [Example 3, 7-Hydroxy-3-(4-phenylthiophenyl)pyrazolo[1,5-a]pyrimidine]
6e-07 M		N#Cc1ccc(NS(=O)(=O)c2ccc(-c3cnn4c(O)ncnc34)cc2)cc1 [Example 94, 8-[4-(4-cyanophenylaminosulfonyl)phenyl]-4-hydroxypyrazolo[1,5-a]-1,3,5-triazine]
5e-07 M	5e-07 M	Cc1cc(O)n2ncc(-c3ccc(Sc4ccccc4)cc3)c2n1 [Example 5, 7-Hydroxy-5,methyl-3-(4-phenylthiophenyl)pyrazolo[1,5-a]pyrimidine]
4e-07 M		Cc1cc(-c2cnn3c(O)ncnc23)ccc1Sc1ccc(Br)cc1 [Example 100, 8-[4-(4-bromophenylthio)-3-methylphenyl]-4-hydroxypyrazolo[1,5-a]-1,3,5-triazine]
3.6e-07 M		O=S(=O)(NC1CCCCC1)c1ccc(-c2cnn3c(O)ncnc23)cc1 [Example 98, 8-(4-cyclohexylaminosulfonylphenyl)-4-hydroxypyrazolo[1,5-a]-1,3,5-triazine]
3e-07 M	1.5e-07 M	COc1cc(-c2cnn3c(O)ncnc23)ccc1Sc1ccccc1 [Example 101, 4-Hydroxy-8-(3-methoxy-4-phenylthiophenyl)pyrazolo [1,5-a]-1,3,5-triazine]
2.5e-07 M		Cc1cc(-c2cnn3c(O)ncnc23)ccc1S(=O)(=O)Nc1ccccc1 [Example 103, 4-Hydroxy-8-(3-methyl-4-phenylaminosulfonylphenyl)pyrazolo[1,5-a]-1,3,5-triazine]
1.3e-07 M	4e-08 M	O=S(=O)(Nc1ccccc1)c1ccc(-c2cnn3c(O)ncnc23)cc1 [Example 87, 4-Hydroxy-8-(4-phenylaminosulfonylphenyl)pyrazolo[1,5-a]-1,3,5-triazine]
